Patent publication US4698352A, “4-oxo-1,4-dihydronicotinic acid derivatives, salts thereof, and antibacterial agents containing the same” (Toyama Chemical Co., Ltd., priority 1982, dated 1987)

Assay: Acute toxicity test (intravenous LD50)
Conditions: mouse, in vivo, mice (ICR strain, male, 18-24 g)
From the text: The LD50 values of the representative compounds of this invention when administered intravenously to mice (ICR strain, male, 18-24 g) are shown in Table 2.

Row | SMILES | LD50
1 | O=C(O)c1cn(-c2ccc(F)cc2)c(C=Cc2cccnc2)cc1=O [drawing 215] | > 200 mg/kg
2 | CN(C)c1ccc(-c2cc(=O)c(C(=O)O)cn2-c2ccc(O)cc2)cc1 [drawing 217] | > 200 mg/kg
3 | O=C(O)c1cn(-c2ccc(F)cc2)c(-c2ccc(NCCO)cc2)cc1=O [drawing 219] | > 200 mg/kg
4 | Cc1cc(O)ccc1-n1cc(C(=O)O)c(=O)cc1C1CCCCC1 [drawing 221] | > 200 mg/kg
